Measurements reported in patent publication US8394408B2, “Gastric retentive extended-release dosage forms comprising combinations of a non-opioid analgesic and an opioid analgesic” (Depomed, Inc., priority 2008, dated 2013).

Columns and labels:
[1] = Oxycodone degradation (DHOXY/OXY), effect of binder, 40° C., 75% RH open dish 8 days; assay type: physicochemical
[2] = cited from earlier work

Row | SMILES | DHOXY/OXY (%), Physical Blend ([1]; 40° C., 75% RH, open-dish 8 days) [%] | DHOXY/OXY (%), Physical Blend ([1]; t = 0) [%] | Solubility in water [2] [mg/mL]
1 | COc1ccc2c3c1O[C@H]1C(=O)CC[C@@]4(O)[C@@H](C2)N(C)CC[C@]314.Cl [oxycodone HCl] | 0.07 | 0.07 | –
2 | COc1ccc2c3c1O[C@H]1C(=O)CC[C@H]4[C@@H](C2)N(C)CC[C@]314.O=C(O)C(O)C(O)C(=O)O [hydrocodone bitartrate] | – | – | 62.5
